Assay results reported in ChEMBL document CHEMBL4831518, “Structure-aided optimization of non-nucleoside M. tuberculosis thymidylate kinase inhibitors” (Eur J Med Chem, 2021).

Key:
Thymidylate kinase [1] = target: T1, Thymidylate kinase (Mycobacterium tuberculosis, UniProt P9WKE1); experiment: Inhibition of Mycobacterium tuberculosis H37Rv TMPK expressed in Escherichia coli by coupled enzyme based spectrophotometric analysis
T1 sequence (P9WKE1 whole entry): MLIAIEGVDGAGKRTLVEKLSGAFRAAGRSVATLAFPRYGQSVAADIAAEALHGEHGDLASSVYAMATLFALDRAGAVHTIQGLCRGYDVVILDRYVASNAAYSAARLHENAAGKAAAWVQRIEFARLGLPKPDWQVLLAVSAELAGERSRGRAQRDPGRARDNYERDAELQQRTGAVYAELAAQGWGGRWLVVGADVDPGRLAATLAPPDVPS

[2] = system: Mycobacterium tuberculosis; experiment: Antimycobacterial activity against Mycobacterium tuberculosis H37Rv ATCC 27294 assessed as inhibition of bacterial growth in presence of glucose by broth microdilution method; assay type: functional
MRC5 = experiment: Cytotoxicity against human MRC-5 cells assessed as reduction in cell growth measured after 3 days by resazurin dye based fluorometric analysis; conditions: MRC5, 72 h
[3] = system: Mycobacterium tuberculosis; experiment: Antibacterial activity against Mycobacterium tuberculosis H37Rv assessed as inhibition of bacterial growth in presence of efflux pump inhibitor verapamil and glucose […] by microdilution assay; assay type: functional
[4] = system: Mycobacterium tuberculosis; experiment: Antibacterial activity againstMycobacterium tuberculosis H37Rv assessed as inhibition of bacterial growth in presence of efflux pump inhibitor PAbetaN and glucose […] by microdilution assay; assay type: functional
Thymidylate kinase [5] = target: T2, Thymidylate kinase (Homo sapiens, UniProt P23919); experiment: Inhibition of human TMPK at 40 uM
T2 sequence (P23919 whole entry): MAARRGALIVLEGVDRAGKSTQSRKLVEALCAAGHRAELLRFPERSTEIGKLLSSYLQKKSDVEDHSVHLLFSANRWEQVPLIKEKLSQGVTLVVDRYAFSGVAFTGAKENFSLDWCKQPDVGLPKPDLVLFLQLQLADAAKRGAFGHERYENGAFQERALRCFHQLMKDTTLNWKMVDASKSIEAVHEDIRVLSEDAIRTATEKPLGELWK

Thymidylate kinase [6] = target: T2, Thymidylate kinase; experiment: Inhibition of human TMPK at 31 uM
[7] = Mycobacterium tuberculosis, H37Rv ATCC 27294, read-out: MIC
[8] = Mycobacterium tuberculosis, H37Rv, read-out: MIC

SMILES | IC50 (Thymidylate kinase [1]) [µM] | MIC [2, 7] [µM] | IC50 (MRC5) [µM] | also measured
Cc1cn(C2CCN(Cc3cccc(Oc4ccccc4)c3)CC2)c(=O)[nH]c1=O | 6.1 | – | – | –
Cc1cn(C2CCN(Cc3cccc(Oc4cccc(F)c4)c3)CC2)c(=O)[nH]c1=O | 2.9 | 25 | > 64 | –
Cc1cn(C2CCN(Cc3ccnc(Oc4ccccc4)c3)CC2)c(=O)[nH]c1=O | 10.2 | > 50 | > 64 | –
Cc1cn(C2CCN(Cc3cccc(Oc4cccc(C(F)(F)F)c4)c3)CC2)c(=O)[nH]c1=O | 0.6 | 19 | 12.4 | –
COc1cccc(Oc2cccc(CN3CCC(n4cc(C)c(=O)[nH]c4=O)CC3)c2)c1 | 1.2 | 25 | 25.3 | –
Cc1cn(C2CCN(Cc3cccc(OC4CCCC4)c3)CC2)c(=O)[nH]c1=O | 32 | > 50 | 30.3 | –
COc1ccc(Oc2cccc(CN3CCC(n4cc(C)c(=O)[nH]c4=O)CC3)c2)cc1 | 10.5 | – | 28 | MIC [3, 8]: 15.6 µg/mL; MIC [2]: 31.25 µM; MIC [4]: 15.6 µg/mL
Cc1cn(C2CCN(Cc3cccc(Oc4cccnc4)c3)CC2)c(=O)[nH]c1=O | 27 | > 50 | > 64 | –
Cc1cn(C2CCN(Cc3cccc(Oc4ccc(Cl)c(C(F)(F)F)c4)c3)CC2)c(=O)[nH]c1=O | 1.1 | 25 | 5.28 | inhibition (INH) (Thymidylate kinase [5]): Not Active
Cc1cn(C2CCN(Cc3cccc(Oc4ccc(Cl)cc4)c3)CC2)c(=O)[nH]c1=O | 6.9 | 12.5 | 25.1 | –
Cc1cn(C2CCN(Cc3cccc(Oc4cccc(Cl)c4)c3)CC2)c(=O)[nH]c1=O | 0.89 | 12.5 | 21 | –
Cc1cn(C2CCN(Cc3cccc(Oc4cc(F)cc(F)c4)c3)CC2)c(=O)[nH]c1=O | 2.8 | > 50 | > 64 | –
Cc1cn(C2CCN(Cc3cccc(Oc4ccncc4)c3)CC2)c(=O)[nH]c1=O | 20 | – | – | –
Cc1cn(C2CCN(Cc3cc(Oc4ccccc4)ccn3)CC2)c(=O)[nH]c1=O | 8.7 | > 50 | > 64 | –
Cc1cn(C2CCN(Cc3cccc(Oc4cc(C(F)(F)F)cc(C(F)(F)F)c4)c3)CC2)c(=O)[nH]c1=O | 0.14 | > 50 | – | –
Cc1cn(C2CCN(Cc3cccc(Oc4cccc(Cl)c4)n3)CC2)c(=O)[nH]c1=O | 0.45 | 31 | > 64 | inhibition (INH) (Thymidylate kinase [5]): Not Active
Cc1cn(C2CCN(Cc3cccc(Oc4ccc(Cl)c(Cl)c4)c3)CC2)c(=O)[nH]c1=O | 1.1 | 12.5 | 6.1 | inhibition (INH) (Thymidylate kinase [5]): Not Active
Cc1ccc(Oc2cccc(CN3CCC(n4cc(C)c(=O)[nH]c4=O)CC3)c2)cc1 | 12 | 31.2 | > 64 | MIC [3, 8]: 15.6 µg/mL; MIC [4]: 15.6 µg/mL

SMILES | IC50 (Thymidylate kinase [1]) [µM] | MIC [2, 7] [µM] | IC50 (MRC5) [µM] | also measured
Cc1cn(C2CCN(Cc3cccc(Oc4ccc(F)c(F)c4)c3)CC2)c(=O)[nH]c1=O | 2.6 | 19 | > 64 | –
Cc1cn(C2CCN(Cc3cccc(OC4CCCCC4)c3)CC2)c(=O)[nH]c1=O | 42 | 37 | 23.6 | –
Cc1cn(C2CCN(Cc3cncc(Oc4cccc(OC(F)(F)F)c4)c3)CC2)c(=O)[nH]c1=O | 0.81 | 37 | > 64 | –
Cc1cn(C2CCN(Cc3cc(Oc4cccc(Cl)c4)ccn3)CC2)c(=O)[nH]c1=O | 2.8 | > 50 | > 64 | –
Cc1cn(C2CCN(Cc3cccc(Oc4cccc(OC(F)(F)F)c4)c3)CC2)c(=O)[nH]c1=O | 0.65 | 25 | 5.26 | inhibition (INH) (Thymidylate kinase [5]): Not Active
Cc1cn(C2CCN(Cc3cncc(Oc4cc(Cl)cc(Cl)c4)c3)CC2)c(=O)[nH]c1=O | 0.22 | 43 | > 64 | inhibition (INH) (Thymidylate kinase [6]): Not Active
Cc1cn(C2CCN(Cc3cccc(Oc4ccccc4)n3)CC2)c(=O)[nH]c1=O | – | > 50 | > 64 | MIC [3, 8]: 125 µg/mL; MIC [4]: 62.5 µg/mL
Cc1cn(C2CCN(Cc3cccc(Oc4ccc(O)cc4)n3)CC2)c(=O)[nH]c1=O | 1.1 | > 50 | – | –
Cc1cn(C2CCN(Cc3ccnc(Oc4cccc(Cl)c4)c3)CC2)c(=O)[nH]c1=O | 3.1 | 37 | > 64 | MIC [3]: 31.25 µg/mL; MIC [4]: 15.6 µg/mL
Cc1cn(C2CCN(Cc3cccc(Oc4ccccc4C(=O)O)n3)CC2)c(=O)[nH]c1=O | 25 | > 50 | – | –
Cc1cn(C2CCN(Cc3cncc(Oc4ccccc4)c3)CC2)c(=O)[nH]c1=O | 6.4 | 37 | > 64 | –
Cc1cn(C2CCN(Cc3cccc(Oc4cccc(O)c4)c3)CC2)c(=O)[nH]c1=O | – | – | > 64 | –
Cc1cn(C2CCN(Cc3cncc(Oc4cccc(Cl)c4)c3)CC2)c(=O)[nH]c1=O | 0.77 | 31 | > 64 | –
Cc1cccc(Oc2cccc(CN3CCC(n4cc(C)c(=O)[nH]c4=O)CC3)c2)c1 | 26 | 37 | > 64 | –
Cc1cn(C2CCN(Cc3cc(Oc4cc(Cl)cc(Cl)c4)ccn3)CC2)c(=O)[nH]c1=O | 0.6 | 34 | – | –
Cc1cn(C2CCN(Cc3cccc(Oc4cc(Cl)cc(Cl)c4)c3)CC2)c(=O)[nH]c1=O | 0.12 | 12.5 | 6.73 | MIC [3, 8]: 7.8 µg/mL; MIC [4]: 7.8 µg/mL; inhibition (INH) (Thymidylate kinase [5]): Not Active
Cc1cn(C2CCN(Cc3cccc(Oc4ccccn4)c3)CC2)c(=O)[nH]c1=O | 41 | > 50 | > 64 | –
